Reference: patent US20220202799A1, “PHARMACEUTICAL FORMULATIONS CONTAINING P2Y14 ANTAGONISTS” (priority 2019, published 2022)
“And” between values parts separate entries of the source, which are not always exact repeats. Equal entries are not always repeated. Where two headings read alike, the source gives them in different places.

Legend:
[1] = Solubility of PPTN at pH ranges suitable for intravenous injection; type: physicochemical
Experimental: The solubility of PPTN at pH ranges suitable for intravenous injection was analyzed. PPTN (HCl salt) was dissolved in DMSO to make a stock solution, and the stock solution was diluted into various aqueous solutions. […] The solutions were then adjusted to achieve a pH ≥5.0, and the solutions were observed again.

[2] = Urine PPTN concentration after single bolus intravenous injection; type: in vivo; conditions: male rats; single bolus intravenous injection 0.85, 2.9 or 8.5 mg/kg
Experimental: (§1) The pharmacokinetics of PPTN (KB-1801) in male rats receiving single bolus intravenous injections of SBECD-containing solutions were analyzed. Three cohorts of four rats each were given a single dose of PPTN (KB-1801) at 0.85 mg/kg, 2.9 mg/kg, or 8.5 mg/kg in 1 mL dosing volume.

[3] = Urine concentrations, 24-hour continuous intravenous infusion; type: in vivo, Sprague-Dawley rats; conditions: for Total amount in urine: all intervals; for Total amount in urine / Amount in urine: individual animals
Experimental: (§2) The safety and pharmacokinetics of PPTN (KB-1801) in rats receiving continuous intravenous injections of SBECD-containing solutions were analyzed. Three cohorts of six male and six female rats each were given continuous intravenous infusion of PPTN (KB-1801) at 10 mg/kg/day, 30 mg/kg/day or 100 mg/kg/day in a dosing solution containing PPTN at 0.25 mg/mL, 0.75 mg/mL or 2.5 mg/mL and SBECD at about 3.8%. Dosing volume was 40 mIkg/day.

[4] = Plasma pharmacokinetics after single bolus intravenous injection; type: in vivo; conditions: male rats; single bolus intravenous injection 0.85, 2.9 or 8.5 mg/kg; SBECD solution
Experimental: as §1

rats = experiment: Safety of PPTN/SBECD formulations during continuous intravenous infusion; type: in vivo; conditions: male Sprague-Dawley rat; 72-hour intravenous infusion at 100 mg/kg
Experimental: as §2

[5] = Plasma concentrations during 24-hour continuous intravenous infusion; type: in vivo, Sprague-Dawley rats; conditions: for Female/Male C24h Ratio: 24-hour intravenous infusion; for concentration at 1 h / concentration at 2 h / concentration at 4 h / concentration at 6 h / concentration at 8 h / concentration at 24 h: Sprague-Dawley, rat, plasma, iv
Experimental: as §2, with “mIkg/day. [table]” for “mIkg/day.”

[6] = female, 10 mg/kg, female Sprague-Dawley rats, 24-hour intravenous infusion at 10 mg/kg, read-out: Plasma concentration, Mean
[7] = female, 10 mg/kg, female Sprague-Dawley rats, 24-hour intravenous infusion at 10 mg/kg, read-out: Plasma concentration, individual animal
[8] = female, 30 mg/kg, female Sprague-Dawley rats, 24-hour intravenous infusion at 30 mg/kg, read-out: Plasma concentration, Mean
[9] = female, 30 mg/kg, female Sprague-Dawley rats, 24-hour intravenous infusion at 30 mg/kg, read-out: Plasma concentration, individual animal
[10] = female, 100 mg/kg, female Sprague-Dawley rats, 24-hour intravenous infusion at 100 mg/kg, read-out: Plasma concentration, Mean
[11] = female, 100 mg/kg, female Sprague-Dawley rats, 24-hour intravenous infusion at 100 mg/kg, read-out: Plasma concentration, individual animal
[12] = male, 10 mg/kg, male Sprague-Dawley rats, 24-hour intravenous infusion at 10 mg/kg, read-out: Plasma concentration, Mean
[13] = male, 10 mg/kg, male Sprague-Dawley rats, 24-hour intravenous infusion at 10 mg/kg, read-out: Plasma concentration, individual animal
[14] = male, 30 mg/kg, male Sprague-Dawley rats, 24-hour intravenous infusion at 30 mg/kg, read-out: Plasma concentration, Mean
[15] = male, 30 mg/kg, male Sprague-Dawley rats, 24-hour intravenous infusion at 30 mg/kg, read-out: Plasma concentration, individual animal
[16] = male, 100 mg/kg, male Sprague-Dawley rats, 24-hour intravenous infusion at 100 mg/kg, read-out: Plasma concentration, Mean
[17] = male, 100 mg/kg, male Sprague-Dawley rats, 24-hour intravenous infusion at 100 mg/kg, read-out: Plasma concentration, individual animal

O=C(O)c1cc(-c2ccc(C3CCNCC3)cc2)c2ccc(-c3ccc(C(F)(F)F)cc3)cc2c1 [KB-1801, 4-[4-(piperidin-4-yl)phenyl]-7-[4-(trifluoromethyl)phenyl]-2-naphthoic acid]
Solution appearance at 24 hours ([1]; 0.015 mg/mL (~29 μM), 1.5 mg DMSO stock solution diluted 100x in water, pH 4-5): Clear
Remarks when pH adjusted to 5-5.5 ([1]; 1.0 mg/mL, DMAc/Water (10/90, v/v), initial pH ~2): Became cloudy
Solution appearance at 24 hours ([1]; 5.0 mg/mL, 1.5 mg DMSO stock solution diluted 100x in PBS (20 mM), pH 5-6): Hazy
Remarks when pH adjusted to 5-5.5, after sonication ([1]; 5.0 mg/mL, DMAc/Water (10/90, v/v) with ~0.1% Tween 80, after sonication): became clear
Remarks when pH adjusted to 5-5.5 ([1]; 5.0 mg/mL, DMAc/Water (10/90, v/v) with ~0.1% Tween 80, initial pH 1-2): Became slightly cloudy;
Remarks when pH adjusted to 5-5.5 ([1]; 5.0 mg/mL, DMAc/Water (10/90, v/v), initial pH 1-2): Became very cloudy
Remarks when pH adjusted to 5-5.5 ([1]; 5.0 mg/mL, NMP/Water (10/90, v/v), initial pH 1-2): Became very cloudy
Remarks when pH adjusted to 5-5.5 ([1]; 5.0 mg/mL, Propylene Glycol/Water (10/90, v/v), initial pH 1-2): Became very cloudy
Urine concentration compared with plasma [2]: in excess of plasma concentrations
Total amount in urine ([3]; 24-hour IV infusion 10 mg/kg, female rats): 6.29 µg and 1.92 µg and 6.27 µg and 24.6 µg and 20.3 µg and 2.33 µg
Amount in urine ([3]; 24-hour IV infusion 10 mg/kg, female rats, interval 0-4 h): 0.16 µg and 0.14 µg and 0.81 µg and 4.98 µg and 2.11 µg
Amount in urine ([3]; 24-hour IV infusion 10 mg/kg, female rats, interval 4-9 h): 5.74 µg and 1.32 µg and 11.2 µg and 0.05 µg and 0.23 µg
Amount in urine ([3]; 24-hour IV infusion 10 mg/kg, female rats, interval 9-24 h): 0.39 µg and 0.46 µg and 5.46 µg and 13.4 µg and 15.3 µg
Total amount in urine ([3]; 24-hour IV infusion 30 mg/kg, female rats): 22.6 µg and 2.00 µg and 6.83 µg and 40.2 µg and 30.9 µg and 57.2 µg
Amount in urine ([3]; 24-hour IV infusion 30 mg/kg, female rats, interval 0-4 h): 8.76 µg and 2.00 µg and 0.003 µg and 7.08 µg and 0.71 µg
Amount in urine ([3]; 24-hour IV infusion 30 mg/kg, female rats, interval 4-9 h): 9.17 µg and 16.2 µg and 22.6 µg and 29.6 µg
Amount in urine ([3]; 24-hour IV infusion 30 mg/kg, female rats, interval 9-24 h): 27.6 µg and 4.65 µg and 6.83 µg and 17.0 µg and 7.56 µg
Total amount in urine ([3]; 24-hour IV infusion 30 mg/kg, male rats): 61.7 µg and 63.3 µg and 9.64 µg and 18.1 µg and 243.3 µg and 31.4 µg
Amount in urine ([3]; 24-hour IV infusion 30 mg/kg, male rats, interval 0-4 h): 0.01 μg (3×) and 2.03 μg and 0.001 μg and 33.9 μg
Amount in urine ([3]; 24-hour IV infusion 30 mg/kg, male rats, interval 4-9 h): 26.0 µg and 43.8 µg and 5.65 µg and 0.003 µg and 11.8 µg and 21.8 µg
Amount in urine ([3]; 24-hour IV infusion 30 mg/kg, male rats, interval 9-24 h): 9.64 µg and 35.7 µg and 17.4 µg and 3.98 µg and 18.1 µg and 197.6 µg
Total amount in urine ([3]; 24-hour IV infusion 100 mg/kg, female rats): 45.8 µg and 48.8 µg and 64.7 µg and 43.0 µg and 149.9 µg and 171.6 µg
Amount in urine ([3]; 24-hour IV infusion 100 mg/kg, female rats, interval 0-4 h): 0.02 µg and 0.01 µg and 9.75 µg and 3.61 µg and 25.6 µg and 10.7 µg
Amount in urine ([3]; 24-hour IV infusion 100 mg/kg, female rats, interval 4-9 h): 1.83 µg and 19.3 µg and 5.96 µg and 0.01 µg and 27.4 µg
Amount in urine ([3]; 24-hour IV infusion 100 mg/kg, female rats, interval 9-24 h): 133.5 µg and 43.9 µg and 48.8 µg and 35.7 µg and 33.4 µg and 124.3 µg
Total amount in urine ([3]; 24-hour IV infusion 100 mg/kg, male rats): 239.6 µg and 82.2 µg and 0.001 µg and 186.8 µg and 228.4 µg and 526.5 µg
Amount in urine ([3]; 24-hour IV infusion 100 mg/kg, male rats, interval 0-4 h): 0.12 µg and 40.8 µg and 51.3 µg
Amount in urine ([3]; 24-hour IV infusion 100 mg/kg, male rats, interval 4-9 h): 33.6 µg and 26.0 µg and 0.001 µg and 24.1 µg and 32.1 µg and 71.5 µg
Amount in urine ([3]; 24-hour IV infusion 100 mg/kg, male rats, interval 9-24 h): 403.7 µg and 206.0 µg and 56.1 µg and 162.6 µg and 155.6 µg
Total amount in urine, individual animal ([3]; male Sprague-Dawley rats, 24-hour intravenous infusion at 10 mg/kg, 0-24 h, 10 mg/kg): 45.5 µg and 49.8 µg and 14.8 µg and 67.4 µg and 19.0 µg and 3.25 µg
Amount in urine, individual animal ([3]; male Sprague-Dawley rats, 24-hour intravenous infusion at 10 mg/kg, time interval 0-4 h, 10 mg/kg): 5.36 µg and 2.11 µg and 2.02 µg and 11.1 µg and 0.03 µg
Amount in urine, individual animal ([3]; male Sprague-Dawley rats, 24-hour intravenous infusion at 10 mg/kg, time interval 4-9 h, 10 mg/kg): 4.47 µg and 0.35 µg and 6.15 µg and 0.52 µg
Amount in urine, individual animal ([3]; male Sprague-Dawley rats, 24-hour intravenous infusion at 10 mg/kg, time interval 9-24 h, 10 mg/kg): 3.23 µg and 35.7 µg and 47.3 µg and 6.64 µg and 56.3 µg and 18.5 µg
Urine concentration compared with plasma ([3]; rats, continuous intravenous infusion for 24 or 72 hours): generally in excess of plasma concentrations
PK parameters, relation to dose [4]: linearly dose-related
Pharmacokinetics of plasma PPTN, model [4]: well-described by a 2-compartment model
Mortality, animal 16003 (rats): NS: No Sample. Animal 16003 died shortly after the 24h timepoint according to CRL.
Female/Male C24h Ratio ([5]; Group 6, 10 mg/kg): 1.36
Female/Male C24h Ratio ([5]; Group 7, 30 mg/kg): 0.88
Female/Male C24h Ratio ([5]; Group 8, 100 mg/kg): 0.93
concentration at 1 h [5, 6]: 216 ng/mL
concentration at 2 h [5, 6]: 281 ng/mL
concentration at 2 h [5, 7]: 383 ng/mL
concentration at 4 h [5, 6]: 426 ng/mL
concentration at 4 h [5, 7]: 445 ng/mL
concentration at 6 h [5, 6]: 569 ng/mL
concentration at 6 h [5, 7]: 726 ng/mL
concentration at 8 h [5, 6]: 526 ng/mL
concentration at 8 h [5, 7]: 678 ng/mL
concentration at 24 h [5, 6]: 954 ng/mL
concentration at 24 h [5, 7]: 753 ng/mL
concentration at 1 h [5, 8]: 641 ng/mL
concentration at 1 h [5, 9]: 603 ng/mL
concentration at 2 h [5, 8]: 1430 ng/mL
concentration at 2 h [5, 9]: 1950 ng/mL
concentration at 4 h [5, 8]: 1530 ng/mL
concentration at 4 h [5, 9]: 1250 ng/mL
concentration at 6 h [5, 8]: 1640 ng/mL
concentration at 6 h [5, 9]: 1390 ng/mL
concentration at 8 h [5, 8]: 1730 ng/mL
concentration at 8 h [5, 9]: 1740 ng/mL
concentration at 24 h [5, 8]: 2500 ng/mL
concentration at 1 h [5, 10]: 2040 ng/mL
concentration at 1 h [5, 11]: 2630 ng/mL
concentration at 2 h [5, 10]: 2310 ng/mL
concentration at 4 h [5, 10]: 5210 ng/mL
concentration at 4 h [5, 11]: 4540 ng/mL
concentration at 6 h [5, 10]: 4300 ng/mL
concentration at 6 h [5, 11]: 3550 ng/mL
concentration at 8 h [5, 10]: 5660 ng/mL
concentration at 8 h [5, 11]: 6390 ng/mL
concentration at 24 h [5, 10]: 8150 ng/mL
concentration at 24 h [5, 11]: 5590 ng/mL
concentration at 1 h [5, 12]: 216 ng/mL
concentration at 1 h [5, 13]: 216 ng/mL
concentration at 2 h [5, 12]: 276 ng/mL
concentration at 2 h [5, 13]: 327 ng/mL
concentration at 4 h [5, 12]: 378 ng/mL
concentration at 6 h [5, 12]: 417 ng/mL
concentration at 6 h [5, 13]: 508 ng/mL
concentration at 8 h [5, 12]: 416 ng/mL
concentration at 8 h [5, 13]: 430 ng/mL
concentration at 24 h [5, 12]: 703 ng/mL
concentration at 1 h [5, 14]: 1020 ng/mL
concentration at 2 h [5, 14]: 1100 ng/mL
concentration at 4 h [5, 14]: 1320 ng/mL
concentration at 4 h [5, 15]: 1460 ng/mL
concentration at 6 h [5, 14]: 1470 ng/mL
concentration at 6 h [5, 15]: 1170 ng/mL
concentration at 8 h [5, 14]: 1500 ng/mL
concentration at 8 h [5, 15]: 1450 ng/mL
concentration at 24 h [5, 14]: 2830 ng/mL
concentration at 24 h [5, 15]: 2880 ng/mL
concentration at 1 h [5, 16]: 2120 ng/mL
concentration at 1 h [5, 17]: 1530 ng/mL
concentration at 2 h [5, 16]: 2760 ng/mL
concentration at 4 h [5, 16]: 3940 ng/mL
concentration at 4 h [5, 17]: 3560 ng/mL
concentration at 6 h [5, 16]: 6660 ng/mL
concentration at 8 h [5, 16]: 5770 ng/mL
concentration at 8 h [5, 17]: 6520 ng/mL
concentration at 24 h [5, 16]: 8740 ng/mL
concentration at 24 h [5, 17]: 10700 ng/mL
